Measurements: patent US20250275964A1, “METHODS OF INHIBITING LIVER-TYPE GLUTAMINASE, GLS2” (CORNELL UNIVERSITY, priority 2019, published 2025)

What was measured:
Format in all cases: cell-based, human
[1] = tested on: BT-474 cells; test: 6-day cell proliferation assay, BT-474; details: BT-474, proliferation over 6 days
Experimental: (§1) Human breast cancer cell lines MCF7, BT-474, T-47D, MDA-MB-453, MDA-MB-231, Hs 578T, HCC38, SK-BR-3, and DU4475 were purchased from the American Type Culture Collection (ATCC) and no additional cell authentication was performed. The TSE human breast cancer cell line was supplied by Dr. Steven Abcouwer (University of Michigan). All breast cancer cells were cultured at 37° C. under a 5% CO2 atmosphere in RPMI 1640 medium containing 2 mM glutamine (Gibco) and supplemented with 10% fetal bovine serum (FBS) (Gibco). The 293T cell line (ATCC) used for generating lentivirus particles was cultured as above but using DMEM, high glucose (Gibco).
(§2) Culture medium was added to 12-well plates (1 ml/well) and wells were seeded with cells at Day 0 as follows. MCF7, T-47D, BT-474, HCC38 cells: […] cells/well. MDA-MB-453 and MDA-MB-231 cells: 1×10^4 cells/well. TSE and Hs 578T cells: 0.3×10^4 cells/well. After 16 hours, culture medium was replaced with fresh medium supplemented with appropriate concentrations of inhibitors and was subsequently replaced every 48 hours. On Day 6 cells were trypsinized and suspended in an appropriate volume of culture medium, and the total number of cells per well was determined using a hemocytometer or a TC20 Automated Cell Counter (Bio-Rad).

[2] = tested on: HCC38 cells; test: 6-day cell proliferation assay, HCC38; details: HCC38, proliferation over 6 days
Experimental: as §1, §2

[3] = tested on: glutamine-mediated TCA cycle anaplerosis in breast cancer cells; test: [U-13C]-glutamine labeling and metabolite analysis
Experimental: The procedures for metabolite extraction from cultured cells are described in previous studies (Cluntun et al., “The Rate of Glycolysis Quantitatively Mediates Specific Histone Acetylation Sites,” Cancer Metab. 3:10 (2015); Liu et al., “A Strategy for Sensitive, Large Scale Quantitative Metabolomics,” J. Vis. Exp. e51358-e51358 (2014), which are hereby incorporated by reference in their entirety). Briefly, adherent cells were grown in 6-well plates in biological triplicate to 80% confluence, medium was rapidly aspirated and cells were washed with cold PBS on ice. Then, 1 ml of extraction solvent (80% methanol/water) cooled to −80° C. was added to each well, and the dishes were transferred to −80° C. for 15 min. Cells were then scraped into the extraction solvent on dry ice. All metabolite extracts were centrifuged at 20,000×g at 4° C. for 10 min. Finally, the solvent in each sample was evaporated in a Speed Vacuum. The cell extracts were dissolved in 15 μl water and 15 μl methanol/acetonitrile (1:1 v/v) (LC-MS optima grade, Thermo Fisher Scientific). Samples were centrifuged at 20,000×g for 10 min at 4° C. and the supernatants were transferred to Liquid Chromatography (LC) vials. The injection volume for polar metabolite analysis was 8 μl.
Cells were grown to 80% confluence in 6-well plates with standard culture medium and washed with sterile PBS. Then, culture medium in which glutamine was replaced by [^13C5]-L-glutamine (Cambridge Isotope Laboratories), supplemented with dialyzed FBS (Gibco) and appropriate concentrations of inhibitors was added (1.5 ml/well). At the appropriate time-point, metabolites were extracted as described above.
A hydrophilic interaction liquid chromatography method (HILIC) with an Xbridge amide column (100×2.1 mm, 3.5 μm) (Waters) was employed on a Dionex (Ultimate 3000 UHPLC) for compound separation and detection at room temperature. The mobile phase A was 20 mM ammonium acetate and 15 mM ammonium hydroxide in water with 3% acetonitrile, pH 9.0, and the mobile phase B was acetonitrile. The linear gradient was as follows: 0 min, 85% B; 1.5 min, 85% B, 5.5 min, 35% B; 10 min, 35% B, 10.5 min, 35% B, 14.5 min, 35% B, 15 min, 85% B, and 20 min, 85% B. The flow rate was 0.15 ml/min from 0 to 10 min and 15 to 20 min, and 0.3 ml/min from 10.5 to 14.5 min. All solvents were LCMS grade and purchased from Thermo Fisher Scientific.
The Q Exactive MS (Thermo Scientific) is equipped with a heated electrospray ionization probe (HESI), and the relevant parameters are as listed: evaporation temperature, 120° C.; sheath gas, 30; auxiliary gas, 10; sweep gas, 3; spray voltage, 3.6 kV for positive mode and 2.5 kV for negative mode. Capillary temperature was set at 320° C., and S-lens was 55. A full scan range from 60 to 900 (m/z) was used. The resolution was set at 70,000. The maximum injection time was 200 ms. Automated gain control (AGC) was targeted at 3,000,000 ions.
Raw data collected from LC-Q Exactive MS were processed on Sieve 2.0 (Thermo Scientific) and ToxID 2.0 (Thermo Scientific). Peak alignment and detection were performed according to the protocol described by Thermo Scientific. For targeted metabolite analysis, the method ‘peak alignment and frame extraction’ was applied. An input file of theoretical m/z and detected retention time of 204 known metabolites was used for targeted metabolites analysis with data collected in positive mode, while a separate input file of 278 metabolites was used for negative mode. M/Z width was set at 10 ppm. The output file including detected m/z and relative intensity in different samples was obtained after data processing. The quantity of the metabolite fraction analyzed was adjusted to the corresponding protein concentration and cell count upon processing a parallel 6-well plate. Quantitation and statistics were calculated and visualized with Microsoft Excel, MORPHEUS and MetaboAnalyst online software.

SMILES | EC50 [1] [µM] | EC50 [2] [µM] | supply of glutamine-derived carbon to glutamate and the TCA cycle ([3]; Hs 578T, 10 μM) | glutamine anaplerosis ([3]; MCF7, 10 μM) | supply of glutamine-derived carbon to glutamate and the TCA cycle ([3]; MDA-MB-231, 10 μM) | glutamine-mediated anaplerosis ([3]; MDA-MB-453, 10 μM) | anaplerosis effect compared between cell lines ([3]; 10 μM, MDA-MB-453 versus MDA-MB-231) | total abundance of TCA cycle intermediates ([3]; MDA-MB-231 and MDA-MB-453, 10 μM, different periods of time) | glutamine-mediated TCA cycle anaplerosis ([3]; basal- and luminal-subtype cells, 10 μM, 10, 24 and 72 hours)
O=C(Cc1ccccc1)Nc1nnc(CCSCCc2nnc(NC(=O)Cc3ccccc3)s2)s1 [BPTES] | ~20 | 4.7 | potently inhibited | partially blocked | potently inhibited | no impact |  |  | 
CN(C)c1ccc(C2Nc3ccc4ccccc4c3C3=C2C(=O)CC(C)(C)C3)cc1Br (centres unmarked) [Compound 968] | 4 | 4 |  |  |  |  | more pronounced in MDA-MB-453 cells than MDA-MB-231 cells | decreased | time-dependent inhibition
